Values joined by “and” are separate entries in the source; they are usually repeats but may differ in a detail not shown here. Identical values can stand only once.
Columns and labels:
Type in all cases: biochemical
E. coli DHPR enzyme [1] = molecular target: T1, E. coli DHPR enzyme (Escherichia coli, UniProt P04036); experiment: Dihydrodipicolinate reductase (DHPR) kinetic spectrophotometric assay, NADPH oxidation at 340 nm; conditions: for IC50: bi-ligands and pyridine dicarboxylate derivatives, Example VII, FIG. 8
T1 sequence (P04036 whole entry): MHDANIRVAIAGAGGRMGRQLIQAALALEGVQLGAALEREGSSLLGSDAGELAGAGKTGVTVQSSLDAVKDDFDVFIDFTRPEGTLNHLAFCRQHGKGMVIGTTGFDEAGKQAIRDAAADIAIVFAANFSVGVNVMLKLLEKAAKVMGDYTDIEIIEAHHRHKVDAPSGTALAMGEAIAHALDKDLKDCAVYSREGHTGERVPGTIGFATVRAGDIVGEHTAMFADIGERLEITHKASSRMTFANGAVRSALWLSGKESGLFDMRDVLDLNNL
Experimental: DHPR was diluted in 10 mM HEPES, pH 7.4. Dihydrodipicolinate synthase (DHPS) was not diluted and was stored in eppendorf tubes.
The L-aspartate semialdehyde (L-ASA) solution was prepared in the following manner. A 180 μM stock solution of ASA was prepared. 100 μl of the ASA stock solution was mixed with 150 μl of concentrated NaHCO3 and 375 μl of H2O. […] The L-ASA stock solution was kept at a temperature of −20° C. After dilution, the pH of the 28.8 mM solution was checked and maintained between pH 1 to 2.
The solution for background detection was a 945 μl solution containing 0.1 M HEPES, pH 7.8, 1 mM pyruvate, 6 μM NADPH, 40 μM L-ASA, and 7 μl of 1 mg/ml DHPS at 25° C. in the volumes indicated above. The sample solution was then mixed and incubated for 10 minutes. Inhibitor solutions (500 nM or 100 μM final concentration) and enough dimethylsulfoxide (DMSO) to provide a final DMSO concentration of 5% were added. The solution was mixed and incubated for an additional 6 minutes.
In DHPR samples, the DHPR stock solution was diluted and 5 μl of diluted E. coli DHPR enzyme (1:1000 dilution of 1 mg/ml stock) were added. The sample was mixed for 20 seconds, and then the reaction was run for […]. […] Reading of the samples was continued until 300 seconds.
For assaying bi-ligands, the substrate concentration and the NADPH or NADH concentration were kept near their Km values. […] If substrate mimics (specificity ligands) were tested, the NADPH or NADH concentration was increased.

[2] = molecular target: DOXP reductoisomerase from E. coli (Escherichia coli, UniProt P45568); experiment: 1-Deoxy-D-xylulose-5-phosphate reductoisomerase (DOXPR) kinetic spectrophotometric assay, NADPH oxidation; conditions: Cibacron Blue at 10.32 μM; read-out: inhibition of DOXPR, positive control
Sequence of DOXP reductoisomerase from E. coli (P45568 whole entry): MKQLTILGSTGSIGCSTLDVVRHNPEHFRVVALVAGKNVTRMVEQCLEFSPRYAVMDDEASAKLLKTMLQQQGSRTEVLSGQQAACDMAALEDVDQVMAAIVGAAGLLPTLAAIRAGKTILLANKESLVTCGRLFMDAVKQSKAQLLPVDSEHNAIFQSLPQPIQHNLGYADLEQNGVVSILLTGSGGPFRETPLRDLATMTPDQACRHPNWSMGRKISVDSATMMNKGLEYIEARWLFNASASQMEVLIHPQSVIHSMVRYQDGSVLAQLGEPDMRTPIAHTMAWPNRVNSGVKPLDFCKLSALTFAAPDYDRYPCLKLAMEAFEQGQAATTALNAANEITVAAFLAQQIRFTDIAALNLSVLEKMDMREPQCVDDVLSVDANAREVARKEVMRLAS
Experimental: DOXPR was diluted in 10 mM HEPES, pH 7.4.
Solutions of the inhibitors in DMSO were prepared to provide a final DMSO concentration of 5%. […] 1.15 mM DOXP, and 8 μM NADPH. The reaction was then initiated with 10 μl of DOXP reductoisomerase (also known as DOXP reductase) from E. coli (10 μg/ml; 1:200 diilution of 2 mg/ml stock solution).
(§1) When bi-ligands were screened, the substrate concentration and NADPH or NADH concentrations were kept near their Km values. When assaying common ligands (CLMs), the substrate concentration was increased to at least 10 times the Km. If the compounds assayed were specificity ligands (substrate mimics), the NAPDH or NADH concentration was increased.

LDH from Rabbit Muscle = molecular target: T2, LDH from Rabbit Muscle (Oryctolagus cuniculus, UniProt P13491); experiment: Lactate dehydrogenase (LDH) kinetic spectrophotometric assay, NADH oxidation; conditions: Cibacron Blue at 10.3 mM; read-out: inhibition of LDH, positive control
T2 construct: 10 μl of diluted LDH from Rabbit Muscle; from tissue; host or cells: rabbit muscle
Experimental: [table] […] These solutions were incubated for 6 minutes at 25° C. in 990 μl of a solution containing 0.1 M HEPES, pH 7.4, […], and 2.5 mM of pyruvate. The reaction was then initiated with 10 μl of diluted LDH from Rabbit Muscle (0.5 μg/ml; 1:2000 dilution of 1.0 mg/ml stock solution). […] Reading of the samples was continued until 300 seconds. […] When bi-ligands were screened, the substrate concentration and NADPH or NADH concentrations were kept near their Km values. […] If the compounds assayed were specificity ligands (substrate mimics), the NAPDH or NADH concentration was increased.

human DHFR = molecular target: T3, human DHFR (Homo sapiens, UniProt P00374); experiment: Dihydrofolate reductase (DHFR) kinetic spectrophotometric assay; conditions: Cibacron Blue at 3 μM; read-out: inhibition of DHFR, positive control
T3 sequence (P00374 1-187): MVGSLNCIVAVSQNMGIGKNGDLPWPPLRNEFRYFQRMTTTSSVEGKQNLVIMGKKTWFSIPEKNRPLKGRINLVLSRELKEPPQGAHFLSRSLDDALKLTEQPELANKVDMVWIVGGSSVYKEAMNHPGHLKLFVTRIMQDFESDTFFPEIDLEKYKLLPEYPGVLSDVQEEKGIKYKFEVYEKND
Experimental: H2 folate was dissolved in DMSO to about 10 mM and then diluted with water to a concentration of 0.1 mM.
Inhibitor solutions were prepared in DMSO so that, when diluted, the inhibitor concentration was 100 μM and the final DMSO concentration was adjusted to 5%. […] The reaction was then initiated with 8 μl of human DHFR (0.047 mg/ml; 1:85 dilution of 4 mg/ml stock solution). After the enzyme was added, the reaction was run for 10 minutes.
as §1

ADH from Bakers Yeast = molecular target: T4, ADH from Bakers Yeast (Saccharomyces cerevisiae, UniProt P00330); experiment: Alcohol dehydrogenase (ADH) kinetic spectrophotometric assay, NAD+ reduction; conditions: Cibacron Blue at 15.5 μM; read-out: inhibition of ADH, positive control
T4 sequence (P00330 1-348): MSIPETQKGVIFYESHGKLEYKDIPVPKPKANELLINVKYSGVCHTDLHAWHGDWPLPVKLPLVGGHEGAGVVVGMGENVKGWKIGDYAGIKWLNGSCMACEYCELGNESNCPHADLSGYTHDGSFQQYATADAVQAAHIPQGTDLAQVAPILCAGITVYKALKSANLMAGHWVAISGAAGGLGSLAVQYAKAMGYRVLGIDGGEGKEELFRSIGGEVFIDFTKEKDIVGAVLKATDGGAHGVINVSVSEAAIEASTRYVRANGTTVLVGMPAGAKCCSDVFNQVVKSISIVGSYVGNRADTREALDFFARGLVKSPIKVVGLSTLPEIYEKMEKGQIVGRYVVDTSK
Experimental: Inhibitor solutions were prepared in DMSO so that, when diluted, the inhibitor concentration was 100 μM and the final DMSO concentration was adjusted to 5%. […] The reaction was then initiated with 10 μl of ADH from Bakers Yeast (Saccharomyces cerevisiae) (3.3 μg/ml; 1:400 dilution of 1.0 mg/ml). […] Reading of the samples was continued until 300 seconds.
Where only a simple read was desired, as in the case of NAD+ concentration determination, 13 μl (10 M stock) of ethanol was used to drive the reaction, and 10 μl of pure enzyme (1 mg/ml) was used. NAD+ was soluble at 2 mM. In this situation, the procedure was as follows. All of the ingredients except for the enzyme were mixed together. The solution was mixed well and the absorbance at 340 nm read. The enzyme was added and read again at OD 340 after the absorbance stopped changing, generally 10 to 15 minutes after the enzyme was added.

E. coli DHPR enzyme [3] = molecular target: T1, E. coli DHPR enzyme; experiment: Dihydrodipicolinate reductase (DHPR) kinetic spectrophotometric assay, NADPH oxidation at 340 nm; conditions: read-out: inhibition of DHPR activity

Molecule O=C1NC(=S)SC1=Cc1ccc(-c2cccc(C(=O)NCCSc3cc(C(=O)O)nc(C(=O)O)c3)c2)o1 [compound 12d, 4-(2-{3-[5-(4-oxo-2-thioxo-thiazolidin-5-ylidenemethyl)-furan-2-yl]-benzoylamino}-ethylsulfanyl)-pyridine-2,6-dicarboxylic acid] has an IC50 (E. coli DHPR enzyme [1]) of roughly 0.254 µM.
Work on N=C1NC(=O)C(=Cc2ccc(C(=O)NCCSc3cc(C(=O)O)nc(C(=O)O)c3)cc2)S1 [compound 16c, 4-{2-[4-(2-imino-4-oxo-thiazolidin-5-ylidenemethyl)-benzoylamino]-ethylsulfanyl}-pyridine-2,6-dicarboxylic acid] yielded an IC50 (E. coli DHPR enzyme [1]) of roughly 33 µM.
In the case of O=C1NC(=O)C(=Cc2ccc(-c3cccc(C(=O)NCCSc4cc(C(=O)O)nc(C(=O)O)c4)c3)o2)S1 [compound 12c, 4-(2-{3-[5-(2,4-dioxo-thiazolidin-5-ylidenemethyl)-furan-2-yl]-benzoylamino}-ethylsulfanyl)-pyridine-2,6-dicarboxylic acid], the IC50 (E. coli DHPR enzyme [1]) is reported as roughly 13 µM.
In the case of Nc1c(S(=O)(=O)O)cc(Nc2ccc(Nc3nc(Cl)nc(Nc4ccccc4S(=O)(=O)O)n3)c(S(=O)(=O)O)c2)c2c1C(=O)c1ccccc1C2=O [Cibacron Blue], the inhibition at 2580 µM (E. coli DHPR enzyme [1]; read-out: inhibition of DHPR, positive control) is reported as 70 to 80%, the inhibition at 10.32 µM [2] is reported as 70 to 80% and the inhibition at 10300 µM (LDH from Rabbit Muscle) is reported as 50 to 70%. For the same molecule, the inhibition at 3 µM (human DHFR) was 50 to 70% and the inhibition at 15.5 µM (ADH from Bakers Yeast) was 50 to 60%.
O=C(O)c1cc(SCCNC(=O)c2cc3cccc(O)c3cc2O)cc(C(=O)O)n1 [compound 24, 4-{2-[(3,5-dihydroxy-naphthalene-2-carbonyl)-amino]-ethylsulfanyl}-pyridine-2,6-dicarboxylic acid] showed an IC50 (E. coli DHPR enzyme [1]) of 2 µM.
In the case of O=C1NC(=O)C(=Cc2ccc(-c3ccc(O)c(C(=O)NCCSc4cc(C(=O)O)nc(C(=O)O)c4)c3)o2)S1 [compound 12f, 4-(2-{5-[5-(2,4-dioxo-thiazolidin-5-ylidenemethyl)-furan-2-yl]-2-hydroxy-benzoylamino}-ethylsulfanyl)-pyridine-2,6-dicarboxylic acid], the IC50 (E. coli DHPR enzyme [1]) is reported as roughly 4.91 µM.
For CC(=O)NCCSc1cc(C(=O)O)nc(C(=O)O)c1 [compound 22, 4-(2-acetylamino-ethylsulfanyl)-pyridine-2,6-dicarboxylic acid], the inhibition at 800 µM (E. coli DHPR enzyme [3]) was roughly 31%.
In the case of O=C(NCCSc1cc(C(=O)O)nc(C(=O)O)c1)c1ccccc1 [compound 23, 4-(2-benzoylamino-ethylsulfanyl)-pyridine-2,6-dicarboxylic acid], the IC50 (E. coli DHPR enzyme [1]) is reported as 78.3 µM.
With N=C1NC(=O)C(=Cc2ccc(O)c(C(=O)NCCSc3cc(C(=O)O)nc(C(=O)O)c3)c2)S1 [compound 16a, 4-{2-[2-hydroxy-5-(2-imino-4-oxo-thiazolidin-5-ylidenemethyl)-benzoylamino]-ethylsulfanyl}-pyridine-2,6-dicarboxylic acid] the IC50 (E. coli DHPR enzyme [1]) was ~8.2 µM and ~15.5 µM.
O=C1NC(=O)C(=Cc2ccc(-c3ccc(C(=O)NCCSc4cc(C(=O)O)nc(C(=O)O)c4)cc3)o2)S1 [compound 12a, 4-(2-{4-[5-(2,4-dioxo-thiazolidin-5-ylidenemethyl)-furan-2-yl]-benzoylamino}-ethylsufanyl)-pyridine-2,6-dicarboxylic acid] was tested, and the IC50 (E. coli DHPR enzyme [1]) was roughly 0.536 µM.
For O=C1NC(=S)SC1=Cc1ccc(-c2ccc(C(=O)NCCSc3cc(C(=O)O)nc(C(=O)O)c3)cc2)o1 [compound 12b, 4-(2-{4-[5-(4-oxo-2-thioxo-thiazolidin-5-ylidenemethyl)-furan-2-yl]-benzoylamino}-ethylsulfanyl)-pyridine-2,6-dicarboxylic acid], the IC50 (E. coli DHPR enzyme [1]) was roughly 7.1 µM.
Work on N=C1NC(=O)C(=Cc2cccc(C(=O)NCCSc3cc(C(=O)O)nc(C(=O)O)c3)c2)S1 [compound 16b, 4-{2-[3-(2-imino-4-oxo-thiazolidin-5-ylidenemethyl)-benzoylamino]-ethylsulfanyl}-pyridine-2,6-dicarboxylic acid] yielded an IC50 (E. coli DHPR enzyme [1]) of roughly 1.02 µM.
With O=C(NCCSc1cc(C(=O)O)nc(C(=O)O)c1)c1ccc(-c2ccc(-c3nc4cc([N+](=O)[O-])ccc4[nH]3)o2)cc1 [compound 21a, 4-(2-{4-[5-(5-nitro-1H-benzoimidazol-2-yl)-furan-2-yl]-benzoylamino}-ethylsulfanyl)-pyridine-2,6-dicarboxylic acid] the IC50 (E. coli DHPR enzyme [1]) was roughly 0.758 µM.

Reference: patent US20030180797A1, “Identification of ligands for a receptor family and related methods” (priority 2002, published 2003)
